# In paper PMC3983056 (PLoS Pathogens, 2014):
# pIC50: −log10 of the molar value.
# Legend:
# human HDAC-1 = target: T1, human HDAC-1 (Homo sapiens, UniProt Q13547); experiment: HDAC inhibition assay; assay type: biochemical
# T1 construct: purchased Reaction Biology Corporation (Malvern, PA)
# Description: (§1) Determination of HDACi potency against individual HDAC enzymes was performed at Reaction Biology Corporation (Malvern, PA). In brief, human HDAC-1 to -11 enzymes were incubated with serial dilutions of HDACi and fluorogenic peptide substrates (50 µM) in a 96-well format assay. […] Fluorogenic peptide Boc-Lys(trifluoroacetyl)-AMC was used as a substrate for HDAC enzymes 4, 5, 7, and 9.
# human HDAC-10 = target: T2, human HDAC-10 (Homo sapiens, UniProt Q969S8); experiment: HDAC inhibition assay; assay type: biochemical
# T2 construct: purchased Reaction Biology Corporation (Malvern, PA)
# T2 sequence (Q969S8 whole entry): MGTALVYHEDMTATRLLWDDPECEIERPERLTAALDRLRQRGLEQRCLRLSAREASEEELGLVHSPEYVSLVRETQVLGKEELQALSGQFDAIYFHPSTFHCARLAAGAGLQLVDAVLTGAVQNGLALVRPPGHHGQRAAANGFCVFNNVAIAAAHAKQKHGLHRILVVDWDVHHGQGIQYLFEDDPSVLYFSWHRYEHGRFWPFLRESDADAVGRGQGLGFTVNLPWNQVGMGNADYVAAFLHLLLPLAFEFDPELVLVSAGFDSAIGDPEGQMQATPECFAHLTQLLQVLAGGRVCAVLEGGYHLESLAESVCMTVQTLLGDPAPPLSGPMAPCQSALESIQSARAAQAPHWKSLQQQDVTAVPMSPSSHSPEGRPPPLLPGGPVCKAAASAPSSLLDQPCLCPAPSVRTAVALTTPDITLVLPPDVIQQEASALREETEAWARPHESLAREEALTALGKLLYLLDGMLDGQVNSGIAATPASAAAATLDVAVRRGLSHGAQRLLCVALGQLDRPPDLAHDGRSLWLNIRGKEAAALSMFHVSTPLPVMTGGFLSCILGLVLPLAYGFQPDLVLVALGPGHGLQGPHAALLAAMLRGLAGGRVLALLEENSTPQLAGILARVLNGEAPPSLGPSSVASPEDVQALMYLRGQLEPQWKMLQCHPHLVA
# Description: as §1
# human HDAC-4 = target: T3, human HDAC-4 (Homo sapiens, UniProt P56524); experiment: HDAC inhibition assay; assay type: biochemical
# T3 construct: purchased Reaction Biology Corporation (Malvern, PA)
# T3 sequence (P56524 whole entry): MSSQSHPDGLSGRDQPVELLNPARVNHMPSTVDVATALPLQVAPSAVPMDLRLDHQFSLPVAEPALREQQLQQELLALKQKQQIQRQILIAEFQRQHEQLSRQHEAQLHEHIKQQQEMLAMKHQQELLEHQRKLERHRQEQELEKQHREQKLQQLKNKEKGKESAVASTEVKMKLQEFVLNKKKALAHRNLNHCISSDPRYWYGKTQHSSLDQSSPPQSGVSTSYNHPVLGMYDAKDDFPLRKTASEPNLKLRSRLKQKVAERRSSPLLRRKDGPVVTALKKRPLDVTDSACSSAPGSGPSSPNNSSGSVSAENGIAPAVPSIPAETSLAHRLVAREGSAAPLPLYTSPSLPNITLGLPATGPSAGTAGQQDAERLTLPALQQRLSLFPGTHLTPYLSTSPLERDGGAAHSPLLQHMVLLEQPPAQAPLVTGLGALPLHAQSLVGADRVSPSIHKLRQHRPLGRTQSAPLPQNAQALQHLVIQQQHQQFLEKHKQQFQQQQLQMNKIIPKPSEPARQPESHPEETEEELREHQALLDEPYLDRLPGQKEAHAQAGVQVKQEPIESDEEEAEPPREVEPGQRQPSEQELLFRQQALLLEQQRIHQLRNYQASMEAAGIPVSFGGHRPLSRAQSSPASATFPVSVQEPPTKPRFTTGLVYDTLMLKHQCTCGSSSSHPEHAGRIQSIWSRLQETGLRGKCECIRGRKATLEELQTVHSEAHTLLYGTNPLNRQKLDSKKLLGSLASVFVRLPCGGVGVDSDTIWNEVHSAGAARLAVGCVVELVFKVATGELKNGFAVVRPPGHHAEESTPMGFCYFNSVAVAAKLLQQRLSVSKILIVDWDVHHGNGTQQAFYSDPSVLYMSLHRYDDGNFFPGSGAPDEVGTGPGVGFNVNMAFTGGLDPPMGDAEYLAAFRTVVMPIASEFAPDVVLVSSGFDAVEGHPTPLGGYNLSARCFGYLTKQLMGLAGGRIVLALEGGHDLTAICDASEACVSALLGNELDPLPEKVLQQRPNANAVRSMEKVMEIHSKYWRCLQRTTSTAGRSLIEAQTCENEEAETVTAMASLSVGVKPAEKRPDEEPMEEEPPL
# Description: as §1
# [1] = Cell culture medium protein binding by equilibrium dialysis, HPLC/mass spectrometry; assay type: in vitro ADME
# T1 sequence (Q13547 whole entry): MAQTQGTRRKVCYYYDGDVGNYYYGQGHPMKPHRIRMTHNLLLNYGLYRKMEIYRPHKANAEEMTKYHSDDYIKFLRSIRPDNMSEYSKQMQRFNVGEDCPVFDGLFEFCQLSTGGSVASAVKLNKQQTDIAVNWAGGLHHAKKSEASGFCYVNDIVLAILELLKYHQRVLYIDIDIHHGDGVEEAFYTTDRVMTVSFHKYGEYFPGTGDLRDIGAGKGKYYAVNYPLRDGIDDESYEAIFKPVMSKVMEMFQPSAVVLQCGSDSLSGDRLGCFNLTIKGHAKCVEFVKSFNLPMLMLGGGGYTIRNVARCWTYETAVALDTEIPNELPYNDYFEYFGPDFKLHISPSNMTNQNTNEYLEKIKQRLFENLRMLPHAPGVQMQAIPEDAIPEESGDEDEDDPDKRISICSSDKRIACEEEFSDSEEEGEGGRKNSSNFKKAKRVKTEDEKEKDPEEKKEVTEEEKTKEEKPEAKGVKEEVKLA
structure (smiles),measurement,setting,value
"C/C=C1\NC(=O)[C@H]2CSSCC/C=C/[C@H](CC(=O)N[C@H](C(C)C)C(=O)N2)OC(=O)[C@H](C(C)C)NC1=O [RMD, romidepsin]",pIC50,human HDAC-1,9.99
same,pIC50,human HDAC-10,9.88
same,pIC50,human HDAC-4,6.50
same,"Free drug concentration, ex vivo cell culture exposure","[1]; RMD 40 nM, VOR 1,000 nM in culture",22 nM
same,fraction unbound,"[1]; cell culture medium, equilibrium dialysis, read-out: Cell culture medium protein binding (free fraction)",0.55
